Values after ≈ are worked out from the molar mass of the structure shown.
Assays:
[1] = molecular target: Cyclin-dependent kinase 2 (Homo sapiens, UniProt P24941); experiment: Inhibition of CDK2/cyclin E expressed in Sf9 cells-baculovirus system assessed as retinoblastoma susceptibility gene product phosphorylation
[2] = molecular target: Cyclin-dependent kinase 4/cyclin D1 (Homo sapiens, UniProt P11802); experiment: Inhibition of CDK4/cyclin D1 expressed in Sf9 cells-baculovirus system assessed as retinoblastoma susceptibility gene product phosphorylation
Chain of Cyclin-dependent kinase 4/cyclin D1 (P11802 whole entry): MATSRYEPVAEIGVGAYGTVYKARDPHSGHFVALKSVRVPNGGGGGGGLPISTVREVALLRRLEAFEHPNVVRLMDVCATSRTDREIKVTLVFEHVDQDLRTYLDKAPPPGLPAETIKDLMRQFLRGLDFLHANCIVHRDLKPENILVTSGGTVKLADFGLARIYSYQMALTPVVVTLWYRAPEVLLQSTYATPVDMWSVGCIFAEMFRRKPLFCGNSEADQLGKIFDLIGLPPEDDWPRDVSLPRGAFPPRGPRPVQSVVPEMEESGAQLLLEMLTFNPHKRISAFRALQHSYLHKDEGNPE
Chain of Cyclin-dependent kinase 4/cyclin D1 (P24385 whole entry, further chain): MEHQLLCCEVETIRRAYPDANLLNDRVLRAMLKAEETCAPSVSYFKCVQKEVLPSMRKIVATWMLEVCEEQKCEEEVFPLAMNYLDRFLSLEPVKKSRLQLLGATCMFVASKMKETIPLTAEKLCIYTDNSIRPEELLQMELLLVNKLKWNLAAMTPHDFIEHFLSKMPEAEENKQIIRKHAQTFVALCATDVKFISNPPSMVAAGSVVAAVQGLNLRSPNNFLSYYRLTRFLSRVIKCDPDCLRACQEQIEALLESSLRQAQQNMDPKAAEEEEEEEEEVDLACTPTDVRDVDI

[3] = molecular target: Cyclin-dependent kinase 1/cyclin B1 (Homo sapiens, UniProt P06493); experiment: Inhibition of CDK1/Cyclin B1 expressed in Sf9 cells-baculovirus system assessed as retinoblastoma susceptibility gene product phosphorylation
Chain of Cyclin-dependent kinase 1/cyclin B1 (P06493 whole entry): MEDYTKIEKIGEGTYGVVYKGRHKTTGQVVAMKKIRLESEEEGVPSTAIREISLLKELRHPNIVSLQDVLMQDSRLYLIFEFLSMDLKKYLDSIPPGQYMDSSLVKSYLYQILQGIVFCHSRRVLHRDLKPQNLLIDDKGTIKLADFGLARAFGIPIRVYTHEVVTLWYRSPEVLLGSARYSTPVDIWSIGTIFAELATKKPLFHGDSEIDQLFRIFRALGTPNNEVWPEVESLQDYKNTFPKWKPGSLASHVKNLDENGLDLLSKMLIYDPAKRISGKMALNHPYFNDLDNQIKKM
Chain of Cyclin-dependent kinase 1/cyclin B1 (P14635 whole entry, further chain): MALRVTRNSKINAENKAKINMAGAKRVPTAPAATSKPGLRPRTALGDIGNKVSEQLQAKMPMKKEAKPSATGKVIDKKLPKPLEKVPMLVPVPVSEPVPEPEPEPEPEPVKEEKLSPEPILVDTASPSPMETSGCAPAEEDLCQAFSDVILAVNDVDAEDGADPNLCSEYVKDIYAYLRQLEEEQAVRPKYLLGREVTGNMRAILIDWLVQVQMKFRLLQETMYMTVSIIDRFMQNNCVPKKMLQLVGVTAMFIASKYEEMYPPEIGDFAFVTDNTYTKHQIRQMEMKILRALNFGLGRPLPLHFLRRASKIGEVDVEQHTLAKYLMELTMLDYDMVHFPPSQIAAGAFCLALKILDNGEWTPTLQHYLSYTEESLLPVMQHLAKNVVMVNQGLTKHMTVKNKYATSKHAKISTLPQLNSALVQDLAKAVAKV

[4] = Aqueous solubility at pH 7.4; format: physicochemical
MCF7 = experiment: Antiproliferative activity against human MCF7 cells by SRB method; format: functional, cell-based
HCT-116 = experiment: Antiproliferative activity against human HCT116 cells by SRB method; format: functional, cell-based

| Structure (SMILES) | IC50 [1] | IC50 [2] | IC50 [3] | solubility [4] | IC50 (MCF7) | IC50 (HCT-116) |
| --- | --- | --- | --- | --- | --- | --- |
| COc1ccc(-c2ccc3c(c2)/C(=C/Nc2ccc(CN4CCCCC4)cc2)C(=O)NC3=O)cc1 | > 50 µM | 0.13 µM | > 50 µM |  |  |  |
| CC(=O)Nc1ccc2c(c1)/C(=C/Nc1ccc(N3CCN(C)CC3)cc1)C(=O)NC2=O | > 50 µM | 11 µM | 13.8 µM |  |  |  |
| C[C@@H]1CN(c2ccc(N/C=C3\C(=O)NC(=O)c4ccc(I)cc43)cc2)C[C@H](C)N1 | > 50 µM | 1 µM | > 50 µM | 12 µg/mL (≈ 23.9 µM) |  |  |
| CN1CCN(c2ccc(N/C=C3\C(=O)NC(=O)c4ccc(-c5ccccc5)cc43)cc2)CC1 | > 50 µM | 0.39 µM | > 50 µM |  |  |  |
| O=C1NC(=O)c2ccc(-c3ccc(Oc4ccccc4)cc3)cc2/C1=C\Nc1ccc(CN2CCCCC2)cc1 | > 50 µM | > 50 µM | > 50 µM |  |  |  |
| CN(C)C(=O)c1ccc2c(c1)/C(=C/Nc1ccc(CN3CCCCC3)cc1)C(=O)NC2=O | 39.8 µM |  | > 50 µM |  |  |  |
| COc1cccc(-c2ccc3c(c2)/C(=C/Nc2ccc(CN4CCCCC4)cc2)C(=O)NC3=O)c1 |  |  | > 50 µM |  |  |  |
| CN1CCN(c2ccc(N/C=C3\C(=O)NC(=O)c4ccc(I)cc43)cc2)CC1 |  |  | > 50 µM | 1 µg/mL (≈ 2.05 µM) |  |  |
| CN1CC2CC1CN2c1ccc(N/C=C2\C(=O)NC(=O)c3ccc(I)cc32)cc1 (centres undefined) | > 50 µM | 0.32 µM | > 50 µM | 18 µg/mL (≈ 36 µM) | 2.6 µM | 1.9 µM |
| O=C1NC(=O)c2ccc(-c3ccccc3)cc2/C1=C/Nc1ccc(CN2CCCCC2)cc1 | > 50 µM | 0.32 µM | > 50 µM |  |  |  |
| O=C1NC(=O)c2ccc([N+](=O)[O-])cc2/C1=C/Nc1ccc(CN2CCCCC2)cc1 | > 50 µM | 15.1 µM | > 50 µM |  |  |  |
| O=C1NC(=O)c2ccc(-c3ccoc3)cc2/C1=C/Nc1ccc(CN2CCCCC2)cc1 | > 50 µM |  | > 50 µM |  |  |  |
| CN1CCN(c2ccc(N/C=C3\C(=O)NC(=O)c4ccc(-n5cccc5)cc43)cc2)CC1 | > 50 µM | 0.14 µM | > 50 µM |  | 2.3 µM | 1.5 µM |
| COc1ccc2c(c1)/C(=C/Nc1ccc(CN3CCCCC3)cc1)C(=O)NC2=O | > 50 µM | 2 µM | > 50 µM |  |  |  |
| O=C1NC(=O)c2ccc(I)cc2/C1=C/Nc1ccc(CN2CCCCC2)cc1 |  |  | > 50 µM |  | 1 µM | 2.7 µM |
| CN1CCN(c2ccc(N/C=C3\C(=O)NC(=O)c4ccc(-c5ccoc5)cc43)nn2)CC1 |  |  |  |  | 4.5 µM | 1.9 µM |
| CN1CCN(c2ncc(N/C=C3\C(=O)NC(=O)c4ccc(-c5ccoc5)cc43)cn2)CC1 |  |  |  |  | 3.2 µM | 1.1 µM |
| CC1CN(c2ccc(N/C=C3\C(=O)NC(=O)c4ccc(I)cc43)cc2)CCN1C (centres undefined) | > 50 µM |  | > 50 µM | 5 µg/mL (≈ 9.95 µM) |  |  |
| CN1CCN(c2cnc(N/C=C3\C(=O)NC(=O)c4ccc(-c5ccoc5)cc43)cn2)CC1 |  | 1.25 µM |  |  | 1.3 µM | 0.95 µM |
| O=C1NC(=O)c2ccc(-c3ccc(O)cc3)cc2/C1=C/Nc1ccc(CN2CCCCC2)cc1 | > 50 µM |  | > 50 µM |  |  |  |
| CN1CCN(c2ccc(N/C=C3\C(=O)NC(=O)c4ccc(N5CCCCC5)cc43)cc2)CC1 | > 50 µM | 1.62 µM | > 50 µM |  |  |  |
| CC(=O)Nc1ccc2c(c1)/C(=C/Nc1ccc(CN3CCCCC3)cc1)C(=O)NC2=O |  | 3.5 µM | > 50 µM |  |  |  |
| CN1CCN(c2ccc(N/C=C3\C(=O)NC(=O)c4ccc(C(=O)N(C)C)cc43)cc2)CC1 |  |  | > 50 µM |  |  |  |
| C[C@@H]1CN(c2ccc(N/C=C3\C(=O)NC(=O)c4ccc(I)cc43)cc2)[C@@H](C)CN1C | > 50 µM | 3 µM | > 50 µM | 4 µg/mL (≈ 7.75 µM) | 1 µM | 5 µM |

| Structure (SMILES) | IC50 [1] | IC50 [2] | IC50 [3] | solubility [4] | IC50 (MCF7) | IC50 (HCT-116) |
| --- | --- | --- | --- | --- | --- | --- |
| O=C1NC(=O)c2ccc(-c3cccc(O)c3)cc2/C1=C/Nc1ccc(CN2CCCCC2)cc1 | > 50 µM |  | > 50 µM |  | 2 µM | 1.3 µM |
| CN1CCN(c2ccc(N/C=C3\C(=O)NC(=O)c4ccccc43)cc2)CC1 | > 28 µM | 4.1 µM | > 28 µM |  |  |  |
| CN1CCN(c2ccc(N/C=C3\C(=O)NC(=O)c4ccc(-c5ccsc5)cc43)cc2)CC1 |  | 0.1 µM | > 50 µM |  | 2.3 µM | 1.4 µM |
| CN1CCN(c2ccc(N/C=C3\C(=O)NC(=O)c4cc(Br)ccc43)cc2)CC1 |  | 12.1 µM | > 50 µM |  |  |  |
| C[C@@H]1CN(c2ccc(N/C=C3\C(=O)NC(=O)c4ccc(I)cc43)cc2)C[C@H](C)N1C |  |  | > 50 µM | 4 µg/mL (≈ 7.75 µM) |  |  |
| CN1CCN(c2ccc(N/C=C3\C(=O)NC(=O)c4ccc(-c5ccoc5)cc43)cc2F)CC1 |  |  | > 50 µM |  | 0.9 µM | 2.2 µM |
| O=C1NC(=O)c2ccc(-c3ccc(Cl)cc3)cc2/C1=C/Nc1ccc(CN2CCCCC2)cc1 | > 50 µM |  | > 50 µM |  |  |  |
| CN1CCN(c2ccc(N/C=C3\C(=O)NC(=O)c4ccc(-c5ccco5)cc43)cc2)CC1 | > 50 µM | 0.33 µM | > 50 µM |  |  |  |
| O=C1NC(=O)c2ccccc2/C1=C/Nc1ccc(CN2CCOCC2)cc1 | 21 µM | 10 µM | > 27 µM |  |  |  |
| O=C1NC(=O)c2ccc(Nc3ccccc3)cc2/C1=C/Nc1ccc(CN2CCCCC2)cc1 |  |  | > 50 µM |  |  |  |
| CN1CCN(c2ccc(N/C=C3\C(=O)NC(=O)c4ccc(-c5ccoc5)cc43)cc2)CC1 |  |  | > 50 µM |  | 1.1 µM | 1.2 µM |
| CN1CCN(c2ccc(N/C=C3\C(=O)NC(=O)c4ccc(-c5ccoc5)cc43)nc2)CC1 |  |  | > 50 µM |  |  |  |
| CN1CCN(c2ccc(N/C=C3\C(=O)NC(=O)c4ccc(/C=C/c5ccccc5)cc43)cc2)CC1 |  | 14.3 µM |  |  |  |  |
| O=C1NC(=O)c2ccccc2/C1=C/Nc1ccc(N2CCOCC2)cc1 |  | > 29 µM | > 29 µM |  |  |  |
| O=C1NC(=O)c2ccc(N3CCCCC3)cc2/C1=C/Nc1ccc(CN2CCCCC2)cc1 | > 50 µM | 1 µM | > 50 µM |  |  |  |
| O=C1NC(=O)c2ccc(-c3ccsc3)cc2/C1=C/Nc1ccc(CN2CCCCC2)cc1 |  | 0.13 µM | > 50 µM |  | 3.4 µM | 1 µM |
| O=C1NC(=O)c2ccc(-n3cccc3)cc2/C1=C/Nc1ccc(CN2CCCCC2)cc1 | > 50 µM | 0.14 µM | > 50 µM |  | 2.1 µM | 2.7 µM |
| O=C1NC(=O)c2ccc(-c3ccc(F)cc3)cc2/C1=C/Nc1ccc(CN2CCCCC2)cc1 | > 50 µM |  | > 50 µM |  | 0.55 µM | 1 µM |
| O=C1NC(=O)c2ccc(-c3cccnc3)cc2/C1=C/Nc1ccc(CN2CCCCC2)cc1 | > 50 µM | 0.05 µM | > 50 µM |  |  |  |
| O=C1NC(=O)c2ccccc2/C1=C/Nc1ccc(CN2CCCCC2)cc1 | 19.6 µM | 3.3 µM | > 27 µM |  |  |  |
| CN1CCN(c2ccc(N/C=C3\C(=O)NC(=O)c4ccc(-c5ccoc5)cc43)cn2)CC1 | > 50 µM | 0.11 µM | > 50 µM |  |  |  |
| CN1CCN(c2ccc3c(c2)/C(=C/Nc2ccc(CN4CCCCC4)cc2)C(=O)NC3=O)CC1 | > 50 µM |  | > 50 µM |  |  |  |
| O=C1NC(=O)c2ccc(Cl)cc2/C1=C/Nc1ccc(CN2CCCCC2)cc1 |  |  | > 50 µM |  |  |  |
| O=C1NC(=O)c2ccc(N3CCOCC3)cc2/C1=C/Nc1ccc(CN2CCCCC2)cc1 | > 50 µM |  | > 50 µM |  |  |  |

— ChEMBL document CHEMBL1150411, “4-(Phenylaminomethylene)isoquinoline-1,3(2H,4H)-diones as potent and selective inhibitors of the cyclin-dependent kinase 4 (CDK4)” (J Med Chem, 2008)
